Here are results for 1 compound from PMC5077990, “P53 activation inhibits all types of hematopoietic progenitors and all stages of megakaryopoiesis” (Oncotarget, 2016).

Format in all cases: cell-based, human
For test [1], the system named is Day 6 megakaryoblasts (ploidization). Briefly: MK ploidy by flow cytometry (CD41/CD42/vital Hoechst staining). As to conditions: day 6 megakaryoblasts treated 72 hours, analysed day 9; SAR405838 at 1 μM; untreated control 4.4 N. How it is done: First, we investigated if MDM2 inhibitors affect MK ploidization. SAR405838 induced a significant reduction in the mean ploidy (3.0 N at the dose of 1 μM versus 4.4 N for untreated control or for MI-219 treatment) (Supplementary Figure S1). page 1: P53 activation inhibits all types of hematopoietic progenitors and all stages of megakaryopoiesis SUPPLEMENTARY FIGURE Supplementary Figure S1: Effect of SAR405838 on polyploidization. Day 6 megakaryoblasts were treated for 72 hours with various doses of MI-219 or SAR405838. At day 9, ploidy was analyzed by flow cytometry using a CD41/CD42/vital Hoechst staining. N represents the mean ploidy. As shown, SAR405838 induced a significant reduction in the mean ploidy (3.0N at the dose of 1μM versus 4.4N for control or for MI-219 treatment). The Figure illustrates a representative experiment in triplicate. Two other experiments in triplicate gave similar results. […]
On the technique in general: In flow cytometry, cells or beads pass a laser one at a time.

The subject of a further test is Day 6-megakaryoblasts. Briefly: Viability of day 6-megakaryoblasts. As to conditions: 0.5 μM, 72 hours. The method, then: (§1) We also explored the effects of p53 stabilization at a later stage of megakaryocytic differentiation. […] Day 7-MKs were treated with 5 μM Nutlin 3a for 24 or 48 hours, which led to an increase in p53, p21, BAX, BCL2 and BCL-XL levels, confirming a functional p53 activity (Figure 6A). […] Similar results were found with day 6-megakaryoblasts treated with two doses of SAR405838 for 72 hours (Figure 6D/6E) without any major effect on the percentage of CD41^+ cells (Figure 6F). […] As shown in Figure 6D/6E, at the dose of 0.5 μM the SAR405838 induced a 50% decreased in the number of viable cells while the apoptotic cells reached 50% of the total cells. We checked if the effect of SAR405838 on MKs could be reverted by the addition of high TPO doses. CD34^+ progenitors were cultured in serum-free medium supplemented with SCF and low dose of TPO (1 ng/mL) for 6 days. Day 6-megakaryoblasts were then treated with 1.5 μM of SAR405838 for 48 hours and various doses of TPO.
In parallel, the expression of P53, BAK, BCL2L1, NOXA, PUMA, BAX, P21 and P53 were quantified by qRT-PCR related to HPRT. C. […] (n=3). D, E, F. Day 6-megakaryoblasts were exposed to MI-219 or SAR405838 (0.5 or 1 μM for 72 hours) and cell viability (D), apoptosis (E) or CD41 expression (F) were investigated. […] One representative experiment (n= 2). […]

For another test, the system named is Day 8-erythroblasts. Briefly: Apoptosis of erythroblasts, Annexin V flow cytometry. The note with it: 48 hour treatment, as low as 0.5 μM.
The test system of test [2] is p53 pathway in megakaryocytes (MKs). Briefly: p53 pathway proteins and transcripts in MKs (western-blot, qRT-PCR). The note with it: day 11-MKs, 1 μM, 24 hours (legend: 5 μM), compared to 1 μM MI-219 or untreated control. The method, then:
as §1
In parallel, the expression of P53, BAK, BCL2L1, NOXA, PUMA, BAX, P21 and P53 were quantified by qRT-PCR related to HPRT. C. […] (n=3). […]
(§2) PCRs were carried out in the ABI Prism GeneAmp 5700 (Perkin-Elmer) using the Power SYBR-Green PCR Master Mix (ABI) containing the specific primers. The expression levels of all genes were calculated relatively to HPRT or to PPIA housekeeping gene.
Proteins were quantified by Image J software.

The subject of test [3] is p53 target genes (MDM2, PUMA, P21) in CD34+ cells. Briefly: qRT-PCR of p53 target genes in CD34+ cells. As to conditions: CD34+ cells cultured one day with TPO and SCF; doses 0.75 M, 1.5 μM, 2.5 μM and 5 μM. How it is done: To investigate the impact of p53 stabilization on hematopoietic progenitors, CD34^+ cells were cultured for one day in serum-free medium with TPO and SCF in the presence of the MDM2 antagonist SAR405838 before quantifying the p53 target genes by qRT-PCR.
Figure 1 Effects of SAR405838 on CD34+ progenitors A. Dose-effect of SAR405838 on p53 target genes by qRT-PCR. CD34^+ cells were treated or not with SAR405838 at various doses ([…], 1.5 μM, 2.5 μM and 5 μM). The expression of P53 and its targets (MDM2, PUMA, P21) were quantified by qRT-PCR related to PPIA. Results are the mean ± SEM of 2 independent experiments in duplicate. B, C, D. Cells were seeded in methylcellulose (B, C) or in fibrin clot (D) in the presence of MI-219 or SAR405838 to assay the number of BFU-E, CFU-GM and CFU-MK progenitors. Results are presented as percentage compared to control. Results represent the mean of 3 experiments for BFU-E and CFU-GM and 3 experiments for CFU-MK made in triplicate. * represents statistical significance using student t test (* P<0.05; **P<0.01; ***P<0.001).
as §2

Protocol for Day 8-erythroblasts: For that purpose, CD34^+ progenitors were cultured in serum-free medium with SCF and EPO for 8 days. […] Day 8-erythroblasts were treated with various doses of SAR405838 or MI-219 for 48 hours. The viable cells were counted by Trypan blue exclusion and the apoptotic cells were quantified by flow cytometry analysis using annexin V/ propidium iodide labeling.
B. Day 8-erythroblasts were treated with various doses of MI-219 or SAR405838 for 48 hours and counted by trypan blue exclusion. C. Day 8-erythroblasts were treated with various doses of MI-219 or SAR405838 for 48 hours and apoptotic cells were analyzed by flow cytometry using Annexin V assay. The results represent the mean of 3 independent experiments. * represents statistical significance (*P<0.05; **P<0.01; ***P<0.001).
Apoptosis was measured by Annexin V-FITC detection kit (BD Pharmigen, San Diego, CA) and analyzed by flow cytometry on a LSRII (Becton Dickinson Mountain View, CA).

In test [1], `CC(C)(C)C[C@@H]1N[C@@H](C(=O)N[C@H]2CC[C@H](O)CC2)[C@H](c2cccc(Cl)c2F)[C@]12C(=O)Nc1cc(Cl)ccc12` [SAR405838] displayed a mean ploidy of 3.0 N. The “decrease in the number of viable cells” value in the test on Day 6-megakaryoblasts is listed as 50%. Besides, the “apoptotic cells (annexin V/propidium iodide)” value with Day 8-erythroblasts was “increased in a dose-dependent manner”. For the same compound, the “P21, BAX, PUMA and BCL2L1 transcripts (qRT-PCR related to HPRT)” value in test [2] was “significant increase”. In test [3], the “MDM2, PUMA and P21 expression (qRT-PCR related to PPIA)” value is reported as “dose-dependent effect”.
